From patent US8304419B2, “Chemical compounds” (priority 2007, dated 2012)
Structures can show the parent of a compound that is named as a salt.

The compounds below were run on HIV wild type (WTRVA) (assay: HeLa cell assay, wild type virus (WTRVA)). Conditions: Human immunodeficiency virus 1, HeLa, HeLa cell assay; read-out: IC50 against WTRVA.
Format: cell-based, HIV-1
Parameters: scale not given here
With `CCc1ccc(CNC(=O)c2[nH]c(N)nc2Cl)c(F)c1Oc1cc(Cl)cc(C#N)c1` [Example 251, 2-amino-4-chloro-N-({3-[(3-chloro-5-cyanophenyl)oxy]-4-ethyl-2-fluorophenyl}methyl)-1H-imidazole-5-carboxamide] the IC50 was less than 10 nM.
For `Cc1cc(C#N)cc(Oc2c(Br)ccc(CNC(=O)c3[nH]c(N)nc3Cl)c2F)c1` [Example 240, 2-amino-N-({4-bromo-3-[(3-cyano-5-methylphenyl)oxy]-2-fluorophenyl}methyl)-4-chloro-1H-imidazole-5-carboxamide trifluoroacetate], the IC50 was less than 10 nM.
`CCCc1cc(C#N)cc(Oc2c(Cl)ccc(CNC(=O)c3[nH]cnc3Cl)c2F)c1` [Example 151, 4-chloro-N-({4-chloro-3-[(3-cyano-5-propylphenyl)oxy]-2-fluorophenyl}methyl)-1H-imidazole-5-carboxamide] was tested, and the IC50 was less than 10 nM.
In the case of `C[C@@H](O)C#Cc1cc(Cl)cc(Oc2c(Cl)ccc(CNC(=O)c3[nH]cnc3Cl)c2F)c1` [Example 319, 4-chloro-N-{[4-chloro-3-({3-chloro-5-[(3R)-3-hydroxy-1-butyn-1-yl]phenyl}oxy)-2-fluorophenyl]methyl}-1H-imidazole-5-carboxamide], the IC50 is reported as less than 10 nM.
With `Cc1nc(Br)c(C(=O)NCc2cc(Br)c(Br)c(Oc3cc(Cl)cc(C#N)c3)c2F)[nH]1` [Example 234, 4-bromo-N-({4,5-dibromo-3-[(3-chloro-5-cyanophenyl)oxy]-2-fluorophenyl}methyl)-2-methyl-1H-imidazole-5-carboxamide trifluoroacetate] the IC50 was less than 10 nM.
In the case of `CCc1ccc(CNC(=O)c2[nH]cnc2Cl)c(F)c1Oc1cc(Cl)cc(C#N)c1` [Example 250, 4-chloro-N-({3-[(3-chloro-5-cyanophenyl)oxy]-4-ethyl-2-fluorophenyl}methyl)-1H-imidazole-5-carboxamide], the IC50 is reported as less than 10 nM.
In the case of `N#Cc1cc(CC2CC2)cc(Oc2c(Cl)ccc(CNC(=O)c3[nH]cnc3Cl)c2F)c1` [Example 157, 4-chloro-N-[(4-chloro-3-{[3-cyano-5-(cyclopropylmethyl)phenyl]oxy}-2-fluorophenyl)methyl]-1H-imidazole-5-carboxamide], the IC50 is reported as less than 10 nM.
`CCNc1nc(Cl)c(C(=O)NCc2ccc(Cl)c(Oc3cc(Cl)cc(C#N)c3)c2F)[nH]1` [Example 362, 4-chloro-N-({4-chloro-3-[(3-chloro-5-cyanophenyl)oxy]-2-fluorophenyl}methyl)-2-(ethylamino)-1H-imidazole-5-carboxamide trifluoroacetate] was tested, and the IC50 was less than 10 nM.
`N#Cc1cc(Cl)cc(Oc2c(Br)ccc(CNC(=O)c3[nH]cnc3Br)c2F)c1` [Example 377, 4-bromo-N-({4-bromo-3-[(3-chloro-5-cyanophenyl)oxy]-2-fluorophenyl}methyl)-1H-imidazole-5-carboxamide] showed an IC50 of less than 10 nM.
`Cc1cc(C#N)cc(Oc2c(Cl)ccc(CNC(=O)c3[nH]c(C)nc3Br)c2F)c1` [Example 146, 4-bromo-N-({4-chloro-3-[(3-cyano-5-methylphenyl)oxy]-2-fluorophenyl}methyl)-2-methyl-1H-imidazole-5-carboxamide] was tested, and the IC50 was less than 10 nM.
In the case of `N#Cc1cc(Oc2c(Cl)ccc(CNC(=O)c3[nH]c(N)nc3Cl)c2F)cc(C(F)F)c1` [Example 327, 2-amino-4-chloro-N-[(4-chloro-3-{[3-cyano-5-(difluoromethyl)phenyl]oxy}-2-fluorophenyl)methyl]-1H-imidazole-5-carboxamide trifluoroacetate], the IC50 is reported as less than 10 nM.
For `N#Cc1cc(Oc2c(Cl)ccc(CNC(=O)c3[nH]cnc3Br)c2F)cc(C(F)F)c1` [Example 375, 4-bromo-N-[(4-chloro-3-{[3-cyano-5-(difluoromethyl)phenyl]oxy}-2-fluorophenyl)methyl]-1H-imidazole-5-carboxamide], the IC50 was less than 10 nM.
`N#Cc1cc(Oc2c(Cl)ccc(CNC(=O)c3[nH]cnc3Br)c2F)cc(C(F)(F)F)c1` [Example 286, 4-bromo-N-[(4-chloro-3-{[3-cyano-5-(trifluoromethyl)phenyl]oxy}-2-fluorophenyl)methyl]-1H-imidazole-5-carboxamide] showed an IC50 of less than 10 nM.
In the case of `C=CCc1cc(C#N)cc(Oc2c(Cl)ccc(CNC(=O)c3[nH]c(C)nc3Cl)c2F)c1` [Example 248, 4-chloro-N-[(4-chloro-3-{[3-cyano-5-(2-propen-1-yl)phenyl]oxy}-2-fluorophenyl)methyl]-2-methyl-1H-imidazole-5-carboxamide trifluoroacetate], the IC50 is reported as less than 10 nM.

Same assay, conditions: Human immunodeficiency virus 1, HeLa, HeLa-CD4-LTR-β-gal cells, wild type virus; read-out: WTRVA activity level
In the case of `N#Cc1cc(Cl)cc(Oc2c(Cl)ccc(CNC(=O)c3nc4ccc([N+](=O)[O-])cc4[nH]3)c2F)c1` [Example 124, N-({4-chloro-3-[(3-chloro-5-cyanophenyl)oxy]-2-fluorophenyl}methyl)-5-nitro-1H-benzimidazole-2-carboxamide], the IC50 is reported as 10 to 1000 nM.
With `N#Cc1cc(Cl)cc(Oc2c(Cl)ccc(CNC(=O)c3[nH]c(C4CC4)nc3Cl)c2F)c1` [Example 136, 4-chloro-N-({4-chloro-3-[(3-chloro-5-cyanophenyl)oxy]-2-fluorophenyl}methyl)-2-cyclopropyl-1H-imidazole-5-carboxamide trifluoroacetate] the IC50 was less than 10 nM.
In the case of `CC(C)c1nc(Cl)c(C(=O)NCc2ccc(Cl)c(Oc3cc(Cl)cc(C#N)c3)c2F)[nH]1` [Example 135, 4-chloro-N-({4-chloro-3-[(3-chloro-5-cyanophenyl)oxy]-2-fluorophenyl}methyl)-2-(1-methylethyl)-1H-imidazole-5-carboxamide trifluoroacetate], the IC50 is reported as less than 10 nM.
`N#Cc1cc(Cl)cc(Oc2c(Cl)ccc(CNC(=O)c3csc(-c4ccncc4)n3)c2F)c1` [Example 88, N-({4-chloro-3-[(3-chloro-5-cyanophenyl)oxy]-2-fluorophenyl}methyl)-2-(4-pyridinyl)-1,3-thiazole-4-carboxamide trifluoroacetate] was tested, and the IC50 was 10 to 1000 nM.
`Cc1ccc2[nH]c(C(=O)NCc3ccc(Cl)c(Oc4cc(Cl)cc(C#N)c4)c3F)c(C)c2c1` [Example 52, N-({4-chloro-3-[(3-chloro-5-cyanophenyl)oxy]-2-fluorophenyl}methyl)-3,5-dimethyl-1H-indole-2-carboxamide trifluoroacetate] showed an IC50 of 10 to 1000 nM.
`CC(C)(C)OC(=O)N1CCO[C@@H](COc2ccc3[nH]c(C(=O)NCc4ccc(Cl)c(Oc5cc(Cl)cc(C#N)c5)c4F)cc3c2)C1` [Example 23, 1,1-dimethylethyl (2R)-2-{[(2-{[({4-chloro-3-[(3-chloro-5-cyanophenyl)oxy]-2-fluorophenyl}methyl)amino]carbonyl}-1H-indol-5-yl)oxy]methyl}-4-morpholinecarboxylate] was tested, and the IC50 was 10 to 1000 nM.
`N#Cc1cc(Cl)cc(Oc2c(Cl)ccc(CNC(=O)c3cc4cccc([N+](=O)[O-])c4[nH]3)c2F)c1` [Example 37, N-({4-chloro-3-[(3-chloro-5-cyanophenyl)oxy]-2-fluorophenyl}methyl)-7-nitro-1H-indole-2-carboxamide] gave an IC50 of 10 to 1000 nM.
Work on `N#Cc1cc(Cl)cc(Oc2c(Cl)ccc(CNC(=O)c3cc4cc(N(CC5CC5)CC5CC5)ccc4[nH]3)c2F)c1` [Example 127, 5-[bis(cyclopropylmethyl)amino]-N-({4-chloro-3-[(3-chloro-5-cyanophenyl)oxy]-2-fluorophenyl}methyl)-1H-indole-2-carboxamide] yielded an IC50 of 10 to 1000 nM.
In the case of `CN(Cc1ccc(Cl)c(Oc2cc(Cl)cc(C#N)c2)c1F)C(=O)c1[nH]cnc1Cl` [Example 132, 4-chloro-N-({4-chloro-3-[(3-chloro-5-cyanophenyl)oxy]-2-fluorophenyl}methyl)-N-methyl-1′-imidazole-5-carboxamide trifluoroacetate], the IC50 is reported as less than 10 nM.
For `Cc1c(C(=O)NCc2ccc(Cl)c(Oc3cc(Cl)cc(C#N)c3)c2F)[nH]c2ccc(Cl)cc12` [Example 40, 5-chloro-N-({4-chloro-3-[(3-chloro-5-cyanophenyl)oxy]-2-fluorophenyl}methyl)-3-methyl-1H-indole-2-carboxamide], the IC50 was 10 to 1000 nM.
`N#Cc1cc(Cl)cc(Oc2c(Cl)ccc(CNC(=O)c3ccncc3)c2F)c1` [Example 89, N-({4-chloro-3-[(3-chloro-5-cyanophenyl)oxy]-2-fluorophenyl}methyl)-4-pyridinecarboxamide trifluoroacetate] gave an IC50 of 10 to 1000 nM.
`N#Cc1cc(Cl)cc(Oc2c(Cl)ccc(CNC(=O)c3cc4ccc(OCCO)cc4[nH]3)c2F)c1` [Example 142, N-({4-chloro-3-[(3-chloro-5-cyanophenyl)oxy]-2-fluorophenyl}methyl)-6-[(2-hydroxyethyl)oxy]-1H-indole-2-carboxamide] showed an IC50 of less than 10 nM.
Work on `CC(=O)NCc1ccc2cc(C(=O)NCc3ccc(Cl)c(Oc4cc(Cl)cc(C#N)c4)c3F)[nH]c2c1` [Example 74, 6-[(acetylamino)methyl]-N-({4-chloro-3-[(3-chloro-5-cyanophenyl)oxy]-2-fluorophenyl}methyl)-1H-indole-2-carboxamide trifluoroacetate] yielded an IC50 of less than 10 nM.
With `CC(=O)c1ccc2cc(C(=O)NCc3ccc(Cl)c(Oc4cc(Cl)cc(C#N)c4)c3F)[nH]c2c1` [Example 78, 6-acetyl-N-({4-chloro-3-[(3-chloro-5-cyanophenyl)oxy]-2-fluorophenyl}methyl)-1H-indole-2-carboxamide trifluoroacetate] the IC50 was less than 10 nM.
Compound `CC(=O)Nc1ccc2[nH]c(C(=O)NCc3ccc(Cl)c(Oc4cc(Cl)cc(C#N)c4)c3F)nc2c1` [Example 125, 5-(acetylamino)-N-({4-chloro-3-[(3-chloro-5-cyanophenyl)oxy]-2-fluorophenyl}methyl)-1H-benzimidazole-2-carboxamide] has an IC50 of less than 10 nM.
`N#Cc1cc(Cl)cc(Oc2c(Cl)ccc(CNC(=O)c3cc4cc(Cl)ccc4o3)c2F)c1` [Example 49, 5-chloro-N-({4-chloro-3-[(3-chloro-5-cyanophenyl)oxy]-2-fluorophenyl}methyl)-1-benzofuran-2-carboxamide trifluoroacetate] showed an IC50 greater than 1000 nM.
For `Cn1cnc(C(=O)NCc2ccc(Cl)c(Oc3cc(Cl)cc(C#N)c3)c2F)c1` [Example 64, N-({4-chloro-3-[(3-chloro-5-cyanophenyl)oxy]-2-fluorophenyl}methyl)-1-methyl-1H-imidazole-4-carboxamide trifluoroacetate], the IC50 was 10 to 1000 nM.
